According to patent publication US20250129334A1, “LINEAGE SPECIFICATION DURING STEM CELL TRANSITION” (Amniotics AB, priority 2021, published 2025):

Assays:
HSC-like cells = assay: HSC-like cell subculture with metabolic regulators, flow cytometry; type: cell-based, human; conditions: day 3, UK5099 10 μM
Text: The RB9-CB1 human iPSC line (Woods, N.-B. et al. Brief report: efficient generation of hematopoietic precursors and progenitors from human pluripotent stem cell lines. Stem Cells 29, 1158-1164 (2011)) was co-cultured with mouse embryonic fibroblasts (MEFs, Millipore), passaged every six days and processed to form embryoid bodies (EBs) as described previously (Guibentif, C. et al. Single-Cell Analysis Identifies Distinct Stages of Human Endothelial to-Hematopoietic Transition. Cell Reports 19, 10-19 (2017)). The differentiation protocol used in this study was previously described (Ditadi, A. & Sturgeon, C. M. Directed differentiation of definitive hemogenic endothelium and hematopoietic progenitors from human pluripotent stem cells. Methods 101, 65-72 (2016)), however, small modifications were made to induce both primitive and definitive hematopoiesis, as indicated below and in FIG. 6, a. Newly-formed EBs were first kept in SFD medium supplemented with 1 ng/ml Activin A (on days 0-2) and 3 μM CHIR99021 (on day 2 only). At day 3, media was switched to “Day 3-SP34” medium supplemented with 1 ng/ml Activin A (on day 3 only) and 3 μM CHIR99021 (on day 3 only) until day 6. On day 6, media was replaced by “Day 6-SP34” medium, until day 8. […]

fetal liver = assay: In vivo compound injection of pregnant mice, fetal liver analysis at E14.5
Experimental: For fetal liver analysis, pregnant female C57Bl/6xB6.SJL mice were injected intraperitoneally at E9.5 with UK5099 (4 mg/kg) or DCA (200 mg/kg) or PBS (control). Embryos were harvested at E14.5 and individually weighed and processed. Fetal livers were dissected and homogenised in 800 μL ice cold PBS supplemented with 2% fetal bovine serum (FBS) and FL cells were washed in PBS with 2%/FBS. For the differentiated lineage panel, cells were stained with B220 and CD19 (B-cell markers)-PE, CD3e-APC, Ter119-PeCy7 and CD71-FITC and analyzed on a BD FACSARIA III. For the HSC panel, samples were first treated with ammonium chloride solution (STEMCELL Technologies, France) to lyse red blood cells, washed twice in ice cold PBS with 2% FBS, stained with CD3e, B220, Ter119, Gr1 (Lineage)-PeCy5, c-Kit-Efluor780, Sca1-BV421, CD48-FITC, CD150-BV605 and 7-AAD (for dead cell exclusion) and analyzed on a BD FACSARIA III. […] For plating of CFU assays, 100 LT-HSCs were sorted (gating strategy shown in FIG. 11, e) and resuspended in 3.0 mL Methocult M3434 (STEMCELL Technologies, France). Each mixture was divided onto 2 wells of a non-tissue culture treated 6-well plate. Following a 14-day incubation in a humidified incubator at 37° C., 5% CO2, 20% O2, colonies were morphologically distinguished and scored. […] Cells were stained with anti-cKit and anti-CD45 antibodies and analyzed on a BD LSRFortessa. […]

N#CC(=Cc1cn(-c2ccccc2)c2ccccc12)C(=O)O [UK5099, 2-Cyano-3-(1-phenyl-1H-indol-3-yl)-2-propenoic acid]
CD43+GPA+ cell output (HSC-like cells): absence of bias | frequency of phenotypic long-term HSCs (LT-HSCs) (fetal liver; LSK CD48-CD150+, UK5099 4 mg/kg, DCA 200 mg/kg): not significantly affected | in vivo EHT and hematopoiesis (fetal liver; UK5099 4 mg/kg i.p. at E9.5): did not see a significant effect
